According to patent publication US11702630B2, “In vitro methods of differentiating stem cells into neurons and neurons generated using the same” (The J. David Gladstone Institutes, a testamentary trust …, priority 2016, dated 2023):

Assays:
Format in all cases: cell-based, human
hPSCs [1] = assay: Total number of cells and yield of CHX10+ cells per input pluripotent cell at day 17; conditions: for number of viable cells per 24-well culture at day 17: 100 nM RA and 100 nM pur, FIG. 2B
Experimental: (§1) hPSCs were seeded in mTeSR supplemented with 10 μM ROCK inhibitor and dual SMAD inhibitors 0.2 μM LDN193189 and 10 μM SB431542 (StemGent, Cambridge, Mass.) at 5,000-100,000 cells/cm^2 onto 24-well plates coated with Matrigel. On day 3, medium was changed to mTeSR supplemented with dual SMAD inhibitors only. On day 5, the base medium was switched to neural induction medium (DMEM F:12 (Corning), N2 supplement (Life Technologies, Carlsbad, Calif.), L-Glutamine (VWR), 2 μg/ml heparin (Sigma Aldrich, St. Louis, Mo.), non-essential amino acids (VWR), penicillin-streptomycin (VWR) supplemented with fresh 0.4 μg/ml ascorbic acid (Sigma Aldrich) and 10 ng/ml brain derived neurotrophin factor (BDNF, R&D Systems, Minneapolis, Minn.)) supplemented with dual SMAD inhibitors and 10 nM-10 μM retinoic acid (Sigma Aldrich). On day 7, dual SMAD inhibition was ceased and 10 nM-10 μM retinoic acid, 10 nM-10 μM pur (EMD Millipore, Darmstast, Germany) and 100 nM-10 μM N—[N-(3,5-Difluorophenacetyl)-L-alanyl]-S-phenylglycine t-butyl ester (DAPT) were added to the neural induction medium. Medium was changed every 2 to 3 days throughout the differentiation, with fresh supplements added each time for up to 17 days.

hPSCs [2] = assay: Flow cytometry of CHX10 at day 17 of V2a interneuron differentiation
Experimental: as §1, with “([…],” for “(StemGent,”, “On day 7, dual SMAD inhibition was ceased and 10 nM-10 μM retinoic acid, 10 nM-10 μM pur (EMD Millipore, Darmstast, Germany) and 100 nM-10 μM N—[N-(3,5-Difluorophenacetyl)-L-alanyl]-S-phenylglycine t-butyl ester (DAPT) were added to the neural induction medium.” left out

pluripotent stem cells [3] = assay: Wnt activation in the V2a interneuron protocol, gene expression of cervical and thoracic markers; conditions: FIG. 20B
Experimental: Samples were lysed and RNA was extracted using the E.Z.N.A. Total RNA Kit (Omega Biotek, Norcross, Ga.). RNA (500 ng) was reverse-transcribed into cDNA using the iScript cDNA synthesis kit (BioRad, Hercules, Calif.). RT-qPCR was performed using Fast SYBR Green Master Mix (Life Technologies) and the primers listed in Table 1 below were annealed at 61° C. on the Step One Plus Real-Time PCR System (Life Technologies). Fold changes were calculated using the ΔΔCt method. For high throughput gene expression analysis, Fluidigm was used. Preamplified cDNA samples and primers were mixed with Sso Fast EvaGreen Supermix (BioRad) then loaded onto a 96.96 Dynamic Array integrated fluidic circuit (IFC) and ran on a BioMark HD system.
(§2) For the “D0 CHIR treated” group, the GSK3 inhibitor, 2 μM CHIR990201 was added into the V2a interneuron protocol from day 0 to day 7. For the “D-2 CHIR treated” group, pluripotent stem cells were initially seeded at a higher density (120 k cells/cm^2) in the presence of 2 μM CHIR990201 for two days. The cells were then dissociated and re-plated at 25 k/cm^2 to begin the V2a interneuron protocol. CHIR990201 was kept in the media composition from day 0 to day 7. Further culture and analysis proceeded as previously described.

pluripotent stem cells [4] = assay: Wnt activation in the V2a interneuron protocol, % CHX10+ cells; conditions: FIG. 20A
Experimental: as §2

[5] = 2 μM CHIR added at D0, day 0 to day 7
[6] = 2 μM CHIR added at D-2 and passage with CHIR, kept to day 7

For C[C@H](NC(=O)Cc1cc(F)cc(F)c1)C(=O)NC(C(=O)OC(C)(C)C)c1ccccc1 (some centres unmarked) [DAPT], the “increase in number of CHX10+ cells per input pluripotent cell” value (hPSCs [1]; 1 μM DAPT compared with 5 μM DAPT, FIG. 2C) was about 50%, the “number of viable cells per 24-well culture at day 17” value (hPSCs [1]; DAPT 1 μM) was 4.40 million cells and the “number of viable cells per 24-well culture at day 17” value (hPSCs [1]; DAPT 5 μM) was 2.85 million cells. The “CHX10+ population at day 17” value (hPSCs [2]; DAPT 5 μM from day 7, RA and pur 100 nM each, FIG. 1E) was about 15% and the “CHX10+ population at day 17” value (hPSCs [2]; DAPT 1 μm from day 7, RA and pur 100 nM each, FIG. 1E) was about 15%.

CC1=C(/C=C/C(C)=C/C=C/C(C)=C/C(=O)O)C(C)(C)CCC1 [RA, retinoic acid] was tested, and the “CHX10+ population at day 17” value (hPSCs [2]; RA 100 nM starting at day 5, pur 1 μM and DAPT 5 μM from day 7, FIG. 1C) was about 6%.

For c1ccc2c(Oc3nc(Nc4ccc(N5CCOCC5)cc4)c4ncn(C5CCCCC5)c4n3)cccc2c1 [pur, 9-Cyclohexyl-N-[4-(4-morpholinyl)phenyl]-2-(1-naphthalenyloxy)-9H-purin-6-amine], the “Chx10+ cells after 17 days of differentiation” value (hPSCs [2]; pur 100 nM from day 7, 100 nM RA and 5 μM DAPT, FIG. 1D) was about 30%.

For Cc1cnc(-c2cnc(NCCNc3ccc(C#N)cn3)nc2-c2ccc(Cl)cc2Cl)[nH]1 [CHIR, 6-[[2-[[4-(2,4-Dichlorophenyl)-5-(5-methyl-1H-imidazol-2-yl)-2-pyrimidinyl]amino]ethyl]amino]-3-pyridinecarbonitrile], the “cervical and thoracic gene expression” value (pluripotent stem cells [3]; [5]) was “slightly increased”, the “cervical and thoracic gene expression” value (pluripotent stem cells [3]; [6]) was “increased” and the “% of CHX10+ cells” value (pluripotent stem cells [4]; [5]) was “did not decrease”. For the same compound, the “% of CHX10+ cells” value (pluripotent stem cells [4]; [6]) was “greatly increased”.
